Article PMC12408683 (Archives of Toxicology, 2025)
Like-named read-outs stand apart in the source and are kept apart here.

Legend:
[1] = parameters: method as in Yang et al. 2021; conditions: PBPK modelling, dietary uptake 0.01 mg/kg bw and day; ref Yang et al. 2021; cited from earlier work
HepG2-CYP1A2 cells [2] = experiment: DNA adduct quantification by UHPLC-MS/MS in HepG2-CYP1A2 cells; type: cell-based, human
Protocol: (§1) To this end, 6 × 10^6 cells were seeded per 10 cm dish and allowed to attach overnight. […] The pellets were washed with phosphate-buffered saline (PBS) and stored at – 20 °C until further use. DNA was isolated as described previously (Carlsson et al. [2022]) and DNA concentration as well as purity were determined with the NanoDrop ND1000 photometer (Thermo Scientific, Waltham MA, USA). As a next step, 30 µg DNA of each sample was digested overnight at 37 °C with micrococcal nuclease (Worthington, Lakewood NJ, USA) and phosphodiesterase II (Worthington, Lakewood NJ, USA) as reported (Carlsson et al. [2022]). Afterwards ^15N-E3′-N^2-dG (2 nM), ^15N-E3′-N^6-dA (0.5 nM) as well as ^15N-dG (20 µM) (Silantes, München, Germany) were added as internal standards. The isotope-labelled internal DNA adduct standards and external DNA adduct standard were synthesised as previously described (Schumacher et al. [2013]). Subsequently, the samples were incubated overnight at 37 °C with alkaline phosphatase (Sigma-Aldrich, St. Louis MO, USA), followed by precipitation of remaining proteins with ethanol and centrifugation at 20,800 g. The supernatant was narrowed down in a vacuum centrifuge (Eppendorf concentrator plus, Eppendorf, Hamburg, Germany) at 60 °C and 1400 g for 2–4 h and the resulting pellet was dissolved in 75% methanol. After another centrifugation step, the solution was transferred into glass vials with inserts.
(§2) The DNA adducts were measured via UHPLC–MS/MS with a multiple reaction method (MRM) using a UHPLC system (Agilent 1290 infinity; Agilent Technologies, Santa Clara CA, USA) consisting of a binary pump (G4220A), an autosampler (G4226A) and a column oven (G1316C). The eluent consisted of 0.1% acetic acid and UHPLC grade methanol. Injection volume was 5 μL and the flow rate was 0.2 mL/min. The gradients are shown in the supporting information, Fig. 2A, B. As a separation column, a Waters XTerraMS C18 2.5 µm (2.1 × 50 mm) was used at 35 °C. The UHPLC was coupled to the Sciex QTrap 5500 MS using a declustering potential of 91 V, an entrance potential of 10 V, a collision energy of 33 V, a collision cell entrance potential of 10 V, curtain gas of 25 psi, an ion spray voltage of 5500 V, a temperature of 550 °C, and an ion source gas of 35 psi as specific mass spectrometry parameters. Measurement was performed with an electron spray ionisation in positive mode using MRM to quantify both adducts. For further quantification of the adduct levels, a standard curve of both adducts was carried along ranging from 60 to 100,000 pM, also containing isotope-labelled standards for reference. Furthermore, the dG-content of each sample was determined via LC–MS/MS with stable isotope dilution analysis to normalise the adduct levels to the overall nucleoside content (Carlsson et al. [2022]; Stegmüller et al. [2018]). The limit of detection (LOD) and the limit of quantification (LOQ) for E3′-N^2-dG and E3′-N^6-dA are provided in supplementary Table S1. The specific compound parameters for both methods are provided in supplementary Table S2.
(§3) As benchmark response (BMR) for all concentration–response curves (adducts, micronuclei), a 2.0-fold increase vs. solvent control was used (BMC100, critical effect size = 1). The determined BMC100 and the corresponding upper and lower boundary (BMCU and BMCL, respectively) of the 90% confidence interval (CI) were used for potency comparison.

female gpt delta mice = tested on: female gpt delta mice; parameters: method as in Suzuki et al. 2012b; conditions: ref Suzuki et al. 2012b; cited from earlier work
HepaRG cells = tested on: HepaRG cells; parameters: method as in Le Hegarat et al. 2014; conditions: up to 2 mM ES for 24 h; ref Le Hegarat et al. 2014; cited from earlier work
HepG2-CYP1A2 cells [3] = experiment: Alkaline comet assay (DNA strand breaks) in HepG2-CYP1A2 cells; conditions: 24 h
Protocol: As a positive control, tBuOOH (20 min, 200 µM) was used. Subsequently, the alkaline comet assay was performed to quantify DNA strand breaks as previously described (Haas et al. [2023b]). Per sample, at least 50 comets were counted with Comet IV software (Instem, Staffordshire, UK) using a Zeiss Axio Observer 7 microscope equipped with an Axiocam 305 mono and ZEN 3.2 software (Carl Zeiss, Jena, Germany).

HepG2 cells [4] = experiment: DNA adduct quantification by UHPLC-MS/MS in HepG2 cells; type: cell-based, human; conditions: for E3′-N^2-dG adducts / E3′-N^6-dA adducts: 24 h
Protocol: as §1, §2, §3

HepG2 cells [5] = experiment: Resazurin reduction assay (cytotoxicity) in HepG2 cells; conditions: for EC50: read-out: EC50 (cell viability)
HepG2 cells [6] = conditions: 24 h
Protocol: γH2AX and p53 levels were assessed by SDS-PAGE and western blotting as reported (Fahrer et al. [2013]). To this end, 5 × 10^5 cells were seeded in 3.5-cm dishes to adhere overnight. […] Proteins were separated by SDS-PAGE followed by the transfer onto a nitrocellulose membrane using the wet blot method. The successful transfer was confirmed by Ponceau S staining of the membrane before blocking with 5% non-fat dry milk in Tris-buffered saline with Tween-20 (MP-TBS-T). Subsequently, the membrane was incubated with the respective primary antibodies overnight at 4 °C. The membranes were washed three times for 5 min with TBS-T before incubating with the respective secondary antibody coupled with horseradish peroxidase. The detection was carried out using the Western Lightning Plus-ECL reagent (Perkin Elmer, Waltham MA, USA) with the c300 chemiluminescence imager (Azure Biosystems, Dublin CA, USA). The used primary and secondary antibodies are detailed in supplementary Table S3.

[7] = endpoint E3′-N^2-dG, BMR 2.0-fold increase, 90% CI, PROAST
[8] = endpoint E3′-N^2-dG, BMR 2.0-fold increase, 90% CI

C=CCc1ccc(OC)cc1 [ES, estragole]
predicted ES concentration in liver venous blood [1]: 0.01 µM | E3′-N^2-dG adducts, change vs maximum level (HepG2-CYP1A2 cells [2]; 2 mM ES (highest treatment group), 24 h): moderate decline | E3′-N^6-dA adduct (minor DNA adduct) (HepG2-CYP1A2 cells [2]; any tested ES concentration (up to 2 mM), 24 h): neither quantifiable nor detectable | BMCL (HepG2-CYP1A2 cells [2]; [7]): 18.9 µM | BMCU (HepG2-CYP1A2 cells [2]; [7]): 104 µM | BMC100 (HepG2-CYP1A2 cells [2]; endpoint E3′-N^2-dG, BMR 2.0-fold increase, PROAST): 63.3 µM | dose with significant increase in mutation frequency (female gpt delta mice): 75 mg/kg bw | DNA strand breaks (comet assay) outcome (HepaRG cells): negative outcome | DNA strand breaks (alkaline comet assay) (HepG2-CYP1A2 cells [3]; 2 mM ES, vs solvent control): small but not statistically significant increase | DNA strand breaks (alkaline comet assay) (HepG2-CYP1A2 cells [3]; up to 2 mM ES): did not elicit an increase of DNA strand break levels

C=CC(O)c1ccc(OC)cc1 (stereo not drawn) [1′OH-ES, 1′-hydroxyestragole]
E3′-N^2-dG adducts (HepG2 cells [4]; 0.1 µM 1′OH-ES): 24 adducts/10^8 ncs | E3′-N^2-dG adducts (HepG2 cells [4]; 25 µM 1′OH-ES): 2237 adducts/10^8 ncs | E3′-N^6-dA adducts (HepG2 cells [4]; 25 µM 1′OH-ES): 64 adducts/10^8 ncs | E3′-N^2-dG adducts (HepG2 cells [4]; 35 µM 1′OH-ES): 6881 adducts/10^8 ncs | E3′-N^6-dA adducts (HepG2 cells [4]; 35 µM 1′OH-ES): 139 adducts/10^8 ncs | E3′-N^2-dG levels vs equimolar ES concentrations (HepG2 cells [4]; 1′OH-ES in HepG2 vs ES in HepG2-CYP1A2, 24 h): 10–50 fold | BMC100 (HepG2 cells [4]; endpoint E3′-N^2-dG, BMR 2.0-fold increase): 2.65 µM | BMCL (HepG2 cells [4]; [8]): 0.75 µM | BMCU (HepG2 cells [4]; [8]): 5.65 µM | genotoxic and mutagenic potency compared to the parent compound ES (HepG2 cells [4]; from BMC modelling): 20–30 fold | E3′-N^2-dG adduct level corresponding to significant cytotoxicity (HepG2 cells [4]; highest 1′OH-ES concentration): 6881 adducts/10^8 ncs | E3′-N^2-dG adduct level at which a twofold MN increase was observed (HepG2 cells [4]; molecular dosimetry, flow cytometry and CBMN): 420–2237 adducts/10^8 ncs | concentrations reaching the adduct level required to impair viability (HepG2 cells [4]; more than 6000 E3′-N^2-dG adducts/10^8 ncs): ≥ 35 µM | E3′-N^2-dG adducts required to impair viability and trigger cell death (HepG2 cells [4]; not reached by ES): more than 6000 adducts/10^8 ncs | cell viability (HepG2 cells [5]; 50 µM 1′OH-ES, 24 h treatment + 72 h recovery): above 70% | EC50 (HepG2 cells [5]; 24 h): 43 µM | EC50 (HepG2 cells [5]; 72 h): 27 µM | γH2AX increase (HepG2 cells [6]; 5 µM 1′OH-ES): 2.2 fold | p53 induction (HepG2 cells [6]; 50 µM 1′OH-ES): sevenfold | γH2AX induction (HepG2 cells [6]; 50 µM 1′OH-ES): 4.8 fold
